The values that follow come from patent US20260364080A1, “PYRAZOLO-PYRIMIDINONE COMPOUNDS FOR USE IN METHODS OF INHIBITING WEE1 A KINASE” (Acrivon Therapeutics, Inc., priority 2023, published 2026).

The structures appear in SMILES notation. Where two headings read alike, the source gives them in different places.

Test [1] concerns the target T1, recombinant human Wee1A kinase (Homo sapiens, UniProt P30291).
T1 construct: full length Wee1 kinase was expressed by baculovirus in insect cells; purchased Invitrogen PV3817; host or cells: insect cells (baculovirus)
Description: Wee1A kinase binding assay (LanthaScreen Eu time-resolved FRET). In short, it runs like this: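 Full-length, baculovirus-expressed GST-tagged Wee1A (5 nM) was mixed with 2 nM Eu-anti-GST antibody, 30 nM kinase tracer 178 and compound (1% DMSO). Buffer was 50 mM HEPES pH 7.5, 10 mM MgCl2, 1 mM EGTA, 0.01% Brij-35, incubated 60 min at room temperature. TR-FRET 665/615 nm emission ratios from duplicates were curve-fitted.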
(In general: TR-FRET usually uses a lanthanide donor and a delayed reading to cut background.)

Test [2] addresses T2, Myt1 kinase (recombinant PMYT-1) (Homo sapiens, UniProt Q99640).
T2 construct: full length PMYT-1 was expressed by baculovirus in insect cells; purchased Invitrogen A30984; host or cells: insect cells (baculovirus)
T2 sequence (Q99640 1-499): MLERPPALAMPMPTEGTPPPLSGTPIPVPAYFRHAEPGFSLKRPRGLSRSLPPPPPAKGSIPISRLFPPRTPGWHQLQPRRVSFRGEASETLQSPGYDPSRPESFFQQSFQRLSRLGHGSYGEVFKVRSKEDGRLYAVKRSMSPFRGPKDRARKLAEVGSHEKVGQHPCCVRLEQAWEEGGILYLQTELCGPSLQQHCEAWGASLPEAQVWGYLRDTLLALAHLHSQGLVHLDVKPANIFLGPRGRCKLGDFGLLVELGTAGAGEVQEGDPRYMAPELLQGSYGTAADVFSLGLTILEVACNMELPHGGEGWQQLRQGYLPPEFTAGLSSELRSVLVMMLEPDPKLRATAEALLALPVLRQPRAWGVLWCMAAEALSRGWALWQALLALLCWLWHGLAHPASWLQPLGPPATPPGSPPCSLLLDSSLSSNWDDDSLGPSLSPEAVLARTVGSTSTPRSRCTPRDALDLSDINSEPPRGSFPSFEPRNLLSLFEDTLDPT
Description: Myt1 kinase binding assay (LanthaScreen Eu Kinase Binding Assay). In outline: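 The binding affinity of compounds for Myt1 kinase was measured with a LanthaScreen Europium (Eu) Kinase Binding Assay, a time-resolved FRET format in which test compounds compete against a labeled kinase tracer, and the results were expressed as IC50 values describing compound binding to Myt1.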

Test [3] concerns the target T3, Wee1A kinase (CDK1 Tyr15 phosphorylation in ACHN renal cell carcinoma cells) (Homo sapiens, UniProt P30291).
T3 construct: pCDK1 Tyr15 immunofluorescence read-out
Description: High-content imaging of pCdk1 Y15, Wee1A kinase target engagement in ACHN cells. It is filed as cell-based. In short, it runs like this: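 ACHN cells exposed to compound for 4 h over 7–5,000 nM or 0.3–200 nM, then fixed and immunostained for pCDK1 Y15 with DAPI nuclear counterstain. The percentage of pCdk1 Y15 nucleus-positive cells relative to DMSO control was imaged per well; EC50 from dose-response curves.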

[4] abbreviates: 30 nM tracer 178, 5 nM Wee1A kinase, 2 nM Eu-labeled antibody, 60 minutes at room temperature, read-out: Wee1A kinase Binding IC50.
The mark [5] stands for this setting: 3 nM tracer 178, 2.5 nM PMYT-1, 1 nM Eu-labeled antibody, read-out: Myt1 kinase Binding IC50.
Setting [6] is: 4 h treatment, nuclear positivity for pCdk1 Y15 vs DMSO control, read-out: CDK1 Tyr15 Phosphorylation EC50.
Setting [7] is: Myt1 kinase Binding IC50, 3 nM tracer 178, 2.5 nM PMYT-1, 1 nM Eu-labeled antibody.
[8] abbreviates: read-out: CDK1 Tyr15 Phosphorylation EC50, 4 h treatment, nuclear positivity for pCdk1 Y15 vs DMSO control.

T3 sequence (P30291 whole entry): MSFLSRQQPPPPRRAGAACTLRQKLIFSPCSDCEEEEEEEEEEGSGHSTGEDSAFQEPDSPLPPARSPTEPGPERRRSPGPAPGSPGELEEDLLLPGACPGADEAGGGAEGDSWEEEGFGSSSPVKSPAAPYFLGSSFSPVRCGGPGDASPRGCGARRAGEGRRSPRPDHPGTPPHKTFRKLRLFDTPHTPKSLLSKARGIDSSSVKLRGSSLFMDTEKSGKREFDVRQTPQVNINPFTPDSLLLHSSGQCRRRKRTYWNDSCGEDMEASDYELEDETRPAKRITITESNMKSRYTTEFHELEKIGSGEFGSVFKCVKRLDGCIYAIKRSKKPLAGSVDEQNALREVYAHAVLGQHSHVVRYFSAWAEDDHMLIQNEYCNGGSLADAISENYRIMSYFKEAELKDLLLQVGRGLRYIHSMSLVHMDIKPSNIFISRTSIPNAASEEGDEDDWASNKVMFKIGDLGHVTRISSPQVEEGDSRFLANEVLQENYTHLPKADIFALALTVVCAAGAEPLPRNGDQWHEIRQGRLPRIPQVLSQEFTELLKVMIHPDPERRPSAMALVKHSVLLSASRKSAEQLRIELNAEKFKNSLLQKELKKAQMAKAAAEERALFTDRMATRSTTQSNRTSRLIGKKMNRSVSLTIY
T1 sequence (P30291 whole entry): as above

One may read the IC50 as the concentration that inhibits the measured activity by half. One may read the EC50 as the concentration giving half of the maximal effect. With `C=CCn1c(=O)c2cnc(Nc3cc(-c4ccccc4)ns3)nc2n1-c1cccc(NC2CCN(C)CC2)n1` [Compound 158, 2-allyl-1-[6-(1-methyl-4-piperidylamino)-2-pyridyl]-6-(3-phenyl-5-isothiazolylamino)-1,2-dihydro-3H-1,2,5,7-tetraazainden-3-one], the 50% inhibitory concentration (IC50) in test [1] (setting [4]) was < 10 nM; in test [2] (setting [5]) it was 20 to 100 nM. In test [3] (setting [6]), the EC50 lay in the range of 100 to 500 nM.

Take `C=CCn1c(=O)c2cnc(Nc3cc(C)cc(F)c3)nc2n1-c1cccc(NC2CCNCC2)n1` [Compound 160, 2-allyl-6-(3-fluoro-5-toluidino)-1-[6-(4-piperidylamino)-2-pyridyl]-1,2-dihydro-3H-1,2,5,7-tetraazainden-3-one]: the results for the IC50 in test [1] (setting [4]) and in test [2] (setting [5]) were < 10 nM and 100 to 500 nM, respectively. Moreover, the EC50 in test [3] (setting [6]) is 100 to 500 nM.

In the case of `C=CCn1c(=O)c2cnc(Nc3ccc(Cl)cc3)nc2n1-c1cccc(N[C@H]2CCCNC2)n1` [Compound 165, 1-{6-[(S)-3-piperidylamino]-2-pyridyl}-2-allyl-6-(p-chlorophenylamino)-1,2-dihydro-3H-1,2,5,7-tetraazainden-3-one], the values for the IC50 in test [1] (setting [4]) and in test [2] (setting [5]) were < 10 nM and 20 to 100 nM, respectively. For the same compound, in test [3] (setting [6]), the EC50 lay within 500 to 1000 nM.

As to `C=CCn1c(=O)c2cnc(Nc3ccc(Cl)cc3)nc2n1-c1cccc(N[C@@H]2CCCNC2)n1` [Compound 166, 1-{6-[(R)-3-piperidylamino]-2-pyridyl}-2-allyl-6-(p-chlorophenylamino)-1,2-dihydro-3H-1,2,5,7-tetraazainden-3-one], the values for the IC50 in test [1] (setting [4]) and in test [2] (setting [5]) were < 10 nM and 100 to 500 nM, respectively. Also, the EC50 in test [3] (setting [6]) is > 1000 nM.

As for `C=CCn1c(=O)c2cnc(Nc3ccc(Cl)cc3)nc2n1-c1cccc(N[C@@H]2CCCN(C)C2)n1` [Compound 168, 1-{6-[(R)-1-methyl-3-piperidylamino]-2-pyridyl}-2-allyl-6-(p-chlorophenylamino)-1,2-dihydro-3H-1,2,5,7-tetraazainden-3-one], the IC50 was < 10 nM in test [1] (setting [4]) and > 500 nM in test [2] (setting [5]). The EC50 in test [3] (setting [6]) was > 1000 nM.

Regarding `C=CCn1c(=O)c2cnc(Nc3cnn(C(C)C)c3)nc2n1-c1cccc(N(C)C2CCNCC2)n1` [Compound 169, 1-{6-[methyl(piperidin-4-yl)amino]pyridin-2-yl}-2-(prop-2-en-1-yl)-6-{[1-(propan-2-yl)-1H-pyrazol-4-yl]amino}-1H,2H,3H-pyrazolo[3,4-d]pyrimidin-3-one], the results for the IC50 in test [1] and in test [2] (setting [7]) were < 10 nM and > 500 nM, respectively. Also, the EC50 in test [3] (setting [8]) is > 1000 nM.

In the case of `C=CCn1c(=O)c2cnc(Nc3cnn(CC(C)C)c3)nc2n1-c1cccc(N(C)C2CCNCC2)n1` [Compound 170, 1-{6-[methyl(piperidin-4-yl)amino]pyridin-2-yl}-6-{[1-(2-methylpropyl)-1H-pyrazol-4-yl]amino}-2-(prop-2-en-1-yl)-1H,2H,3H-pyrazolo[3,4-d]pyrimidin-3-one], the IC50 in test [1] was < 10 nM; in test [2] (setting [7]) it was > 500 nM. Moreover, in test [3] (setting [8]), the EC50 is > 1000 nM.

For the compound `C=CCn1c(=O)c2cnc(Nc3ccc(Cl)cc3)nc2n1-c1cccc(N(C)[C@@H]2CCCNC2)n1` [Compound 171, 1-{6-[N—(R)-3-piperidyl-N-methylamino]-2-pyridyl}-2-allyl-6-(p-chlorophenylamino)-1,2-dihydro-3H-1,2,5,7-tetraazainden-3-one], the IC50 in test [1] (setting [4]) is < 10 nM; in test [2] (setting [5]) it was > 500 nM. In addition, the EC50 in test [3] (setting [6]) was > 1000 nM.

Regarding `C=CCn1c(=O)c2cnc(Nc3cnn(C(C)C)c3)nc2n1-c1cccc(N(C)C2CCN(C)CC2)n1` [Compound 174, 1-{6-[methyl(1-methylpiperidin-4-yl)amino]pyridin-2-yl}-2-(prop-2-en-1-yl)-6-{[1-(propan-2-yl)-1H-pyrazol-4-yl]amino}-1H,2H,3H-pyrazolo[3,4-d]pyrimidin-3-one], the values for the IC50 in test [1] and in test [2] (setting [7]) were < 10 nM and > 500 nM, respectively. Also, the EC50 in test [3] (setting [8]) is 100 to 500 nM.

As for `C=CCn1c(=O)c2cnc(Nc3cnn(CC(C)C)c3)nc2n1-c1cccc(N(C)C2CCN(C)CC2)n1` [Compound 175, 1-{6-[methyl(1-methylpiperidin-4-yl)amino]pyridin-2-yl}-6-{[1-(2-methylpropyl)-1H-pyrazol-4-yl]amino}-2-(prop-2-en-1-yl)-1H,2H,3H-pyrazolo[3,4-d]pyrimidin-3-one], the IC50 in test [1] was < 10 nM; in test [2] (setting [7]), > 500 nM. For the same compound, in test [3] (setting [8]), the EC50 lay in the range of 500 to 1000 nM.

As to `C=CCn1c(=O)c2cnc(Nc3ccc(Cl)cc3)nc2n1-c1cccc(O[C@H]2CN3CCC2CC3)n1` [Compound 176, 1-{6-[(3R)-1-azabicyclo[2.2.2]octan-3-yloxy]pyridin-2-yl}-6-[(4-chlorophenyl)amino]-2-(prop-2-en-1-yl)-1H,2H,3H-pyrazolo[3,4-d]pyrimidin-3-one], the IC50 was < 10 nM in test [1] and > 500 nM in test [2] (setting [7]). Also, the EC50 in test [3] (setting [8]) is > 1000 nM.

For the compound `C=CCn1c(=O)c2cnc(Nc3cnn(CCC)c3)nc2n1-c1cccc(N(C)C2CCN(C)CC2)n1` [Compound 177, 1-{6-[N-methyl(1-methyl-4-piperidyl)amino]-2-pyridyl}-2-allyl-6-(1-propyl-4-pyrazolylamino)-1,2-dihydro-3H-1,2,5,7-tetraazainden-3-one], the figures for the IC50 in test [1] and in test [2] (setting [7]) were < 10 nM and > 500 nM, respectively. Also, the EC50 in test [3] (setting [8]) is 100 to 500 nM.

Consider `C=CCn1c(=O)c2cnc(Nc3ccc(OCC(F)(F)F)c(C)c3)nc2n1-c1cccc(NC2CCNCC2)n1` [Compound 178, 2-allyl-1-[6-(4-piperidylamino)-2-pyridyl]-6-[4-(2,2,2-trifluoroethoxy)-3-toluidino]-1,2-dihydro-3H-1,2,5,7-tetraazainden-3-one], for which the IC50 in test [1] (setting [4]) is < 10 nM; in test [2] (setting [5]), 100 to 500 nM. Also, the EC50 in test [3] (setting [6]) was in the range of 100 to 500 nM.

As to `C=CCn1c(=O)c2cnc(Nc3cnn(CCC)c3)nc2n1-c1cccc(OC2CCNCC2)n1` [Compound 179, 2-allyl-1-[6-(4-piperidyloxy)-2-pyridyl]-6-(1-propyl-4-pyrazolylamino)-1,2-dihydro-3H-1,2,5,7-tetraazainden-3-one], the IC50 in test [1] (setting [4]) was < 10 nM; in test [2] (setting [5]), > 500 nM. Further, the EC50 in test [3] (setting [6]) was > 1000 nM.

On to `C=CCn1c(=O)c2cnc(Nc3cnn(C)c3)nc2n1-c1cccc(N(C)C2CCNCC2)n1` [Compound 182, 1-{6-[methyl(piperidin-4-yl)amino]pyridin-2-yl}-6-[(1-methyl-1H-pyrazol-4-yl)amino]-2-(prop-2-en-1-yl)-1H,2H,3H-pyrazolo[3,4-d]pyrimidin-3-one], for which the IC50 in test [1] is < 10 nM; in test [2] (setting [7]), > 500 nM. In test [3] (setting [8]), the EC50 was > 1000 nM.

In the case of `C=CCn1c(=O)c2cnc(Nc3cnn(CC(C)(C)F)c3)nc2n1-c1cccc(N(C)C2CCNCC2)n1` [Compound 183, 1-[6-(N-methyl-N-4-piperidylamino)-2-pyridyl]-2-allyl-6-[1-(2-fluoro-2-methylpropyl)-4-pyrazolylamino]-1,2-dihydro-3H-1,2,5,7-tetraazainden-3-one], the IC50 in test [1] is < 10 nM; in test [2] (setting [7]), > 500 nM. In test [3] (setting [8]), the EC50 is > 1000 nM.

Take `C=CCn1c(=O)c2cnc(Nc3cnn(C)c3)nc2n1-c1cccc(N(C)C2CCN(C)CC2)n1` [Compound 184, 1-{6-[methyl(1-methylpiperidin-4-yl)amino]pyridin-2-yl}-6-[(1-methyl-1H-pyrazol-4-yl)amino]-2-(prop-2-en-1-yl)-1H,2H,3H-pyrazolo[3,4-d]pyrimidin-3-one]: the values for the concentration for half-maximal inhibition (IC50) in test [1] and in test [2] (setting [7]) were < 10 nM and > 500 nM, respectively. The EC50 in test [3] (setting [8]) lay within 100 to 500 nM.

With `C=CCn1c(=O)c2cnc(Nc3cnn(CC(C)(C)F)c3)nc2n1-c1cccc(N(C)C2CCN(C)CC2)n1` [Compound 185, 6-{[1-(2-fluoro-2-methylpropyl)-1H-pyrazol-4-yl]amino}-1-{6-[methyl(1-methylpiperidin-4-yl)amino]pyridin-2-yl}-2-(prop-2-en-1-yl)-1H,2H,3H-pyrazolo[3,4-d]pyrimidin-3-one], the IC50 in test [1] was < 10 nM; in test [2] (setting [7]) it was > 500 nM. Moreover, the EC50 in test [3] (setting [8]) is 500 to 1000 nM.
